Patent US10080804B2, “Conjugate with target-finding ligand and use thereof” (ethris GmbH, priority 2009, dated 2018)

Key:
[1] = system: 16HBE14o-cells; test: Confocal laser scanning microscopy of surface binding and intracellular uptake; assay type: cell-based, human; conditions: 0.5 μM conjugate
Experimental: (§1) For the FACS measurement experiments, 100 000 cells/well were seeded in 24-well plates (TPP, Trasadingen, Switzerland) 24 hours before adding the conjugates. […] After the cells had been washed with PBS, the cells were removed from the wells by treatment with trypsin, and the FACS measurements were carried out using a Beckton-Dickinson FACS scan (San Jose, USA). For the confocal laser scanning microscopy, the experiments were carried out on slides with 4 chambers from BD Falcon Culture (BD Biosciences San Jose, USA) with 25 000 cells per chamber. The incubation of FLUO-BSA-ILO and FLUO-BSA was performed as described above. The cells were washed and fixed in 4% paraformaldehyde, and the nuclei were subsequently stained with 0.33 μM DAPI (4′,6-diamidino-2-phenylindole) and F-actin with Alexafluor® 568 Falloidin (Invitrogen GmbH, Karlsruhe, Germany) using standard protocols. The slides were covered with medium (Vectashield, Vector Laboratories Inc., Berlingame, USA), and images were taken with a confocal laser scanning microscope (Leica, Solms, Germany).

[2] = system: 16HBE14o-cells; test: FACS receptor binding/uptake of fluorescein-BSA conjugates; assay type: cell-based, human; conditions: 0.5 μM conjugate, 4 h, 37° C.
Experimental: as §1

[3] = system: A549 cells; test: as above; assay type: cell-based, human; conditions: 0.5 μM conjugate, 4 h, 37° C.
Experimental: as §1

[4] = system: H441 cells; test: as above; assay type: cell-based, human; conditions: 0.5 μM conjugate, 4 h, 37° C.
Experimental: as §1

[5] = system: BEAS-2B cells; test: as above; assay type: cell-based, human; conditions: 0.5 μM conjugate, 4 h, 37° C.
Experimental: as §1

[6] = target: T1, human IP1 receptor (Homo sapiens, UniProt P43119); test: Inhibition of FLUO-BSA-ILO receptor binding/uptake with CAY10449 on 16HBE14o-cells (FACS); assay type: cell-based; conditions: 25 nM conjugate, increasing CAY10449 (15, 30, 150 μM) or excess of unconjugated ILO
T1 construct: The expression of IP1 receptor in human alveolar (A549) and bronchial (BEAS-2B, 16HBE14o-) epithelial cells was confirmed by Western blot analysis; endogenous in cells; host or cells: 16HBE14o- human bronchial epithelial cells
T1 sequence (P43119 whole entry): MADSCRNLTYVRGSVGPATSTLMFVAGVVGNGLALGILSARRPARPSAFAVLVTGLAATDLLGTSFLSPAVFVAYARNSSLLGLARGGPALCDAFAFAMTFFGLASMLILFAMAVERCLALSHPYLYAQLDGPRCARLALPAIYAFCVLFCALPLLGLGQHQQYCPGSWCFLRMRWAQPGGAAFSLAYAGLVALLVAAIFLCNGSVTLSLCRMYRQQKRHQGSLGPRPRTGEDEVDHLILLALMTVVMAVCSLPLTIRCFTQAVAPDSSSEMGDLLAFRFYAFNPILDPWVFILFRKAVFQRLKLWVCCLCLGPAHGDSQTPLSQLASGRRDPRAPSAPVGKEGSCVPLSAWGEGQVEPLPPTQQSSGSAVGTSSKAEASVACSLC
Experimental: 24-well plates were prepared as described above. CAY10449 was diluted in MEM to concentrations of 15 μM, 30 μM and 150 μM, and the mixtures were incubated at 37° C. for 15 min. […] The binding/uptake was measured using FACS.

[7] = physiological environment, i.e. in the blood; cited from earlier work

effect of competitor on number of fluorescence-positive cells and MFI [6]	Compound	cell surface binding and intracellular uptake (confocal microscopy) [1]	positive 16HBE14o-cells [2]	positive A549 cells [3]	positive cells (H441) [4]	positive cells (BEAS-2B) [5]	half-life [7]
no activity	FLUO-BSA: fluorescein-labeled bovine serum albumin, control without ligand	no uptake	unspecific background binding	unspecific background binding	9.1±1.9%	13.7±1.2%	
significant dose-dependent reduction	CC(C)Oc1ccc(Cc2ccc(NC3=NCCN3)cc2)cc1 [CAY10449]						
	CCCCC[C@H](O)/C=C/[C@@H]1[C@H]2C/C(=C/CCCC(=O)O)O[C@H]2C[C@H]1O [prostacyclin]						only a few minutes
